Laboratory results published in patent US11446287B2, “Compounds and methods for EP300 or CBP modulation and indications therefor” (Opna Immuno-Oncology SA, priority 2019, dated 2022).

What follows are molecules tested against T1, Recombinant human CBP containing the bromodomain (CBP-BD (1043-1159)) (Homo sapiens, UniProt Q92793) (assay: CBP Alphascreen binding assay). Details: read-out: CREBBP (CBP) IC50.
T1 construct: Recombinant human CBP bromodomain (CBP-BD (1043-1159)); made in house; host or cells: E. coli BL21-CodonPlus (DE3), modified pET vector
T1 sequence (Q92793 1081-1197): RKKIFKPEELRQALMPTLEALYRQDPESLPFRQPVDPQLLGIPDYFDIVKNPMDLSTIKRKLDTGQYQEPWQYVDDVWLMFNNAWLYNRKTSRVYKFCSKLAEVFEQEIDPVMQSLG
How it was run: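 Buffer: 50 mM HEPES pH 7.5, 50 mM NaCl, 0.01% BSA, 0.01% Triton X-100, 2 mM DTT. The signal was normalised to plate controls and fitted with a four-parameter curve to give IC50.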

| Compound | IC50 [nM] |
| --- | --- |
| Cc1noc(C)c1-c1cnc2c(C(=O)C3CC3)c(O)n(-c3ccnc(C(=O)O)c3)c2c1 [P-0084, 4-(3-(cyclopropanecarbonyl)-6-(3,5-dimethylisoxazol-4-yl)-2-hydroxy-1H-pyrrolo[3,2-b]pyridin-1-yl)picolinic acid] | 0.1 to 1000 |
| Cc1noc(C)c1-c1cnc2c(c1)c(-c1cccc(C(=O)O)c1)cn2C(=O)c1ccccc1 [P-0085, 3-(1-benzoyl-5-(3,5-dimethylisoxazol-4-yl)-1H-pyrrolo[2,3-b]pyridin-3-yl)benzoic acid] | 1000 to 8000 |
| Cc1noc(C)c1-c1cnc2c(CC3CCC3)cn(-c3c(C(=O)O)ccc(Br)c3F)c2c1 [P-0086, 4-bromo-2-(3-(cyclobutylmethyl)-6-(3,5-dimethylisoxazol-4-yl)-1H-pyrrolo[3,2-b]pyridin-1-yl)-3-fluorobenzoic acid] | 0.1 to 1000 |
| COc1c(-n2cc(CC3CCC3)c3ncc(-c4c(C)noc4C)cc32)ccc(C(=O)O)c1F [P-0087, 4-(3-(cyclobutylmethyl)-6-(3,5-dimethylisoxazol-4-yl)-1H-pyrrolo[3,2-b]pyridin-1-yl)-2-fluoro-3-methoxybenzoic acid] | 0.1 to 1000 |
| Cc1noc(C)c1-c1cnc2c(C(=O)c3cccc(Cl)c3)cn(-c3ccnc(C(=O)O)c3)c2c1 [P-0088, 4-(3-(3-chlorobenzoyl)-6-(3,5-dimethylisoxazol-4-yl)-1H-pyrrolo[3,2-b]pyridin-1-yl)picolinic acid] | 0.1 to 1000 |
| Cc1noc(C)c1-c1cnc2c(C(=O)c3ccccc3Cl)cn(-c3ccnc(C(=O)O)c3)c2c1 [P-0089, 4-(3-(2-chlorobenzoyl)-6-(3,5-dimethylisoxazol-4-yl)-1H-pyrrolo[3,2-b]pyridin-1-yl)picolinic acid] | 0.1 to 1000 |
| Cc1noc(C)c1-c1cnc2c(Cc3cccc(Cl)c3)cn(-c3ccnc(C(=O)O)c3)c2c1 [P-0090, 4-(3-(3-chlorobenzyl)-6-(3,5-dimethylisoxazol-4-yl)-1H-pyrrolo[3,2-b]pyridin-1-yl)picolinic acid] | 0.1 to 1000 |
| Cc1noc(C)c1-c1cnc2c(Cc3ccccc3Cl)cn(-c3ccnc(C(=O)O)c3)c2c1 [P-0091, 4-(3-(2-chlorobenzyl)-6-(3,5-dimethylisoxazol-4-yl)-1H-pyrrolo[3,2-b]pyridin-1-yl)picolinic acid] | 0.1 to 1000 |
| Cc1noc(C)c1-c1cnc2c(c1)c(-c1cccc(C(=O)NS(C)(=O)=O)c1)cn2Cc1ccccc1 [P-0092, 3-(1-benzyl-5-(3,5-dimethylisoxazol-4-yl)-1H-pyrrolo[2,3-b]pyridin-3-yl)-N-(methylsulfonyl)benzamide] | 1000 to 8000 |
| Cc1noc(C)c1-c1cnc2c(c1)c(C1=CCC(C(=O)O)CC1)cn2Cc1ccccc1 (stereo not shown) [P-0093, 4-(1-benzyl-5-(3,5-dimethylisoxazol-4-yl)-1H-pyrrolo[2,3-b]pyridin-3-yl)cyclohex-3-ene-1-carboxylic acid] | 0.1 to 1000 |
| Cc1noc(C)c1-c1cnc2c(c1)c(-c1c(F)cc(C(=O)O)cc1F)cn2C(C)c1ccccn1 (stereo not shown) [P-0094, 4-(5-(3,5-dimethylisoxazol-4-yl)-1-(1-(pyridin-2-yl)ethyl)-1H-pyrrolo[2,3-b]pyridin-3-yl)-3,5-difluorobenzoic acid] | 0.1 to 1000 |
| Cc1noc(C)c1-c1cnc2c(c1)c(-c1c(Cl)cc(C(=O)O)cc1Cl)cn2C(C)c1ccccn1 (stereo not shown) [P-0095, 3,5-dichloro-4-(5-(3,5-dimethylisoxazol-4-yl)-1-(1-(pyridin-2-yl)ethyl)-1H-pyrrolo[2,3-b]pyridin-3-yl)benzoic acid] | 0.1 to 1000 |
| Cc1noc(C)c1-c1cnc2c(c1)c(-c1c(F)ccc(NS(C)(=O)=O)c1F)cn2C(C)c1ccccn1 (stereo not shown) [P-0096, N-(3-(5-(3,5-dimethylisoxazol-4-yl)-1-(1-(pyridin-2-yl)ethyl)-1H-pyrrolo[2,3-b]pyridin-3-yl)-2,4-difluorophenyl)methanesulfonamide] | 1000 to 8000 |
